Earlier results on two compounds are cited in patent US7700612B2, “Di-ester prodrugs of camptothecin, process for their preparation and their therapeutical applications” (Abraxis BioScience, LLC, priority 2003, dated 2010).

For data set [1] the following is noted: animal models; J. Med. Chem. 23, 554 (1980).
For another data set, the system named is mouse leukemia L 1210. To be noted: initial test, Wall et al.

`CC[C@@](O)(C(=O)[O-])c1cc2n(c(=O)c1CO)Cc1cc3ccccc3nc1-2.[Na+]` [CPT sodium carboxylate]: the solubility in water result is “water-soluble”. For the same compound, in data set [1], the “potency relative to the parent camptothecin” value was 10-20%.
In the case of `CC[C@@]1(O)C(=O)OCc2c1cc1n(c2=O)Cc2cc3ccccc3nc2-1` [Camptothecin], the solubility in water entry was “insoluble”. Besides, in the data set with mouse leukemia L 1210, the “activity against mouse leukemia L 1210 system” value is listed as “active”.
